Experimental findings from patent US7973061B2, “Anaplastic lymphoma kinase modulators and methods of use” (Exelixis, Inc., priority 2004, dated 2011) are described below.

pIC50: −log10 of the molar value.

This assay concerns the target T1, ALK (baculovirus expressed human ALK kinase domain F1098-K1410) (Homo sapiens, UniProt Q9UM73).
T1 construct: human ALK kinase domain F1098-K1410; made in house
Description: biochemical. To be noted: 1 μM ATP, 4 μM poly-AEKY, 12 nM ALK, 2 hours at ambient temperature; read-out: ALK IC50. A digest of the protocol: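 Baculovirus-expressed human ALK kinase domain (F1098-K1410) was run in a luciferase-coupled chemiluminescent format, with ATP near its KM. After 2 h at ambient temperature, remaining ATP was read by luciferase-luciferin luminescence. IC50 came from 10-point dose-response curves fitted to a four-parameter equation with Hill slope.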

T1 sequence (Q9UM73 1098-1410): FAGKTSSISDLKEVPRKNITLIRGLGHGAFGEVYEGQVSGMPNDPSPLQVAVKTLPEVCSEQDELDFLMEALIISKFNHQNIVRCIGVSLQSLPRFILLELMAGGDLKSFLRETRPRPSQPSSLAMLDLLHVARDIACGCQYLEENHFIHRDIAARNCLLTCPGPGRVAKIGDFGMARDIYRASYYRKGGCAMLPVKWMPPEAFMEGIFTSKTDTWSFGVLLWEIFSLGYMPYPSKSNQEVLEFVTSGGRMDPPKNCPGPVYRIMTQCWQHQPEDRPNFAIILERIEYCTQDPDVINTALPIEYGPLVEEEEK

On to `Cc1ccccc1CNC(=O)c1coc(CNC(=O)COc2ccc(OC(F)(F)F)cc2)n1` [Entry 288, N-[(2-methylphenyl)methyl]-2-({[({4-[(trifluoromethyl)oxy]phenyl}oxy)acetyl]amino}methyl)-1,3-oxazole-4-carboxamide], for which the pIC50 was 5.70 to 6.30.

Consider `O=C(COc1ccc(OC(F)(F)F)cc1)NCc1nc(C(=O)NCc2ccc(Cl)c(Cl)c2)cs1` [Entry 75, N-[(3,4-dichlorophenyl)methyl]-2-({[({4-[(trifluoromethyl)oxy]phenyl}oxy)acetyl]amino}methyl)-1,3-thiazole-4-carboxamide], for which the pIC50 was 6.30 to 7.30.

On to `CC1CN(C(=O)c2csc(CNC(=O)COc3ccc(OC(F)(F)F)cc3)n2)CCN1c1ccccc1` (centres unmarked) [Entry 253, N-({4-[(3-methyl-4-phenylpiperazin-1-yl)carbonyl]-1,3-thiazol-2-yl}methyl)-2-({4-[(trifluoromethyl)oxy]phenyl}oxy)acetamide], for which the pIC50 was 5.70 to 6.30.

For the compound `C[C@H](NC(=O)c1coc(CNC(=O)COc2ccc(OC(F)(F)F)cc2)n1)C1CCCCC1` [Entry 264, N-[(1S)-1-cyclohexylethyl]-2-({[({4-[(trifluoromethyl)oxy]phenyl}oxy)acetyl]amino}methyl)-1,3-oxazole-4-carboxamide], the pIC50 was 5.70 to 6.30.

Regarding `COc1cccc(CNC(=O)c2csc(CNC(=O)COc3ccc(OC(F)(F)F)cc3)n2)c1OC` [Entry 11, N-{[2,3-bis(methyloxy)phenyl]methyl}-2-({[({4-[(trifluoromethyl)oxy]phenyl}oxy)acetyl]amino}methyl)-1,3-thiazole-4-carboxamide], the pIC50 was above 7.30.

Turning to `O=C(COc1ccc(OC(F)(F)F)cc1)NCc1nc(C(=O)N2CCN(c3ccccn3)CC2)cs1` [Entry 279, N-({4-[(4-pyridin-2-ylpiperazin-1-yl)carbonyl]-1,3-thiazol-2-yl}methyl)-2-({4-[(trifluoromethyl)oxy]phenyl}oxy)acetamide], the pIC50 is 5.70 to 6.30.

Take `CSc1ccc(CC(=O)NCc2nc(C(=O)NCCc3cccc(Cl)c3)cs2)cc1` [Entry 232, N-[2-(3-chlorophenyl)ethyl]-2-[({[4-(methylthio)phenyl]acetyl}amino)methyl]-1,3-thiazole-4-carboxamide]: the pIC50 is 5.70 to 6.30.

In the case of `CC(NC(=O)c1csc(CNC(=O)COc2ccc(OC(F)(F)F)cc2)n1)c1ccc(Br)cc1` (centres unmarked) [Entry 204, N-[1-(4-bromophenyl)ethyl]-2-({[({4-[(trifluoromethyl)oxy]phenyl}oxy)acetyl]amino}methyl)-1,3-thiazole-4-carboxamide], the pIC50 is 6.30 to 7.30.

Regarding `O=C(COc1ccc(OC(F)(F)F)cc1)NCc1nc(C(=O)N2CCc3c([nH]c4ccccc34)C2)cs1` [Entry 96, N-{[4-(1,3,4,9-tetrahydro-2H-beta-carbolin-2-ylcarbonyl)-1,3-thiazol-2-yl]methyl}-2-({4-[(trifluoromethyl)oxy]phenyl}oxy)acetamide], the pIC50 was 6.30 to 7.30.

On to `Cc1cccc(CNC(=O)c2csc(CNC(=O)COc3ccc(OC(F)(F)F)cc3)n2)c1C` [Entry 46, N-[(2,3-dimethylphenyl)methyl]-2-({[({4-[(trifluoromethyl)oxy]phenyl}oxy)acetyl]amino}methyl)-1,3-thiazole-4-carboxamide], for which the pIC50 is 6.30 to 7.30.

On to `NCc1nc(C(=O)NCCc2cccc(Cl)c2)co1` [Entry 307, 2-(aminomethyl)-N-[2-(3-chlorophenyl)ethyl]-1,3-oxazole-4-carboxamide], for which the negative-log IC50 (pIC50) was below 5.70.

For the compound `O=C(COc1ccc(OC(F)(F)F)cc1)NCc1nc(C(=O)NCCc2ccc(F)cc2)cs1` [Entry 24, N-[2-(4-fluorophenyl)ethyl]-2-({[({4-[(trifluoromethyl)oxy]phenyl}oxy)acetyl]amino}methyl)-1,3-thiazole-4-carboxamide], the pIC50 was above 7.30.

As for `C[C@H](NC(=O)c1csc(CNC(=O)COc2ccc(OC(F)(F)F)cc2)n1)C1CCCCC1` [Entry 95, N-[(1S)-1-cyclohexylethyl]-2-({[({4-[(trifluoromethyl)oxy]phenyl}oxy)acetyl]amino}methyl)-1,3-thiazole-4-carboxamide], the negative logarithm of the IC50 (pIC50) is 6.30 to 7.30.

In the case of `COc1ccc(CCNC(=O)c2coc(CNC(=O)COc3ccc(OC(F)(F)F)cc3)n2)cc1OC` [Entry 155, N-{2-[3,4-bis(methyloxy)phenyl]ethyl}-2-({[({4-[(trifluoromethyl)oxy]phenyl}oxy)acetyl]amino}methyl)-1,3-oxazole-4-carboxamide], the pIC50 was 6.30 to 7.30.

As for `COCCNC(=O)c1csc(CNC(=O)COc2ccc(OC(F)(F)F)cc2)n1` [Entry 287, N-[2-(methyloxy)ethyl]-2-({[({4-[(trifluoromethyl)oxy]phenyl}oxy)acetyl]amino}methyl)-1,3-thiazole-4-carboxamide], the pIC50 was 5.70 to 6.30.

`Cc1ccc(CCNC(=O)c2coc(CNC(=O)COc3ccc(OC(F)(F)F)cc3)n2)cc1` [Entry 225, N-[2-(4-methylphenyl)ethyl]-2-({[({4-[(trifluoromethyl)oxy]phenyl}oxy)acetyl]amino}methyl)-1,3-oxazole-4-carboxamide]: the pIC50 was 5.70 to 6.30.

Regarding `COc1ccc(OCCNC(=O)c2csc(CNC(=O)COc3ccc(OC(F)(F)F)cc3)n2)cc1` [Entry 81, N-(2-{[4-(methyloxy)phenyl]oxy}ethyl)-2-({[({4-[(trifluoromethyl)oxy]phenyl}oxy)acetyl]amino}methyl)-1,3-thiazole-4-carboxamide], the pIC50 was 6.30 to 7.30.

`O=C(COc1ccc(OC(F)(F)F)cc1)NCc1nc(C(=O)NCCSCc2c(Cl)cccc2Cl)cs1` [Entry 93, N-(2-{[(2,6-dichlorophenyl)methyl]thio}ethyl)-2-({[({4-[(trifluoromethyl)oxy]phenyl}oxy)acetyl]amino}methyl)-1,3-thiazole-4-carboxamide]: the pIC50 was 6.30 to 7.30.

`COc1ccc([C@H](C)NC(=O)c2csc(CNC(=O)COc3ccc(OC(F)(F)F)cc3)n2)cc1` [Entry 183, N-{(1S)-1-[4-(methyloxy)phenyl]ethyl}-2-({[({4-[(trifluoromethyl)oxy]phenyl}oxy)acetyl]amino}methyl)-1,3-thiazole-4-carboxamide]: the pIC50 was 6.30 to 7.30.

For the compound `O=C(COc1ccc(OC(F)(F)F)cc1)NCc1nc(C(=O)NC2CCCCCCC2)cs1` [Entry 76, N-cyclooctyl-2-({[({4-[(trifluoromethyl)oxy]phenyl}oxy)acetyl]amino}methyl)-1,3-thiazole-4-carboxamide], the pIC50 was 6.30 to 7.30.

On to `O=C(COc1ccc(OC(F)(F)F)cc1)NCc1nc(C(=O)NCc2c(F)cccc2F)cs1` [Entry 115, N-[(2,6-difluorophenyl)methyl]-2-({[({4-[(trifluoromethyl)oxy]phenyl}oxy)acetyl]amino}methyl)-1,3-thiazole-4-carboxamide], for which the pIC50 is 6.30 to 7.30.

Regarding `CCOc1cc(CCNC(=O)c2coc(CNC(=O)COc3ccc(OC(F)(F)F)cc3)n2)ccc1OC` [Entry 250, N-{2-[3-(ethyloxy)-4-(methyloxy)phenyl]ethyl}-2-({[({4-[(trifluoromethyl)oxy]phenyl}oxy)acetyl]amino}methyl)-1,3-oxazole-4-carboxamide], the pIC50 is 5.70 to 6.30.

With `CCOc1ccccc1CNC(=O)c1csc(CNC(=O)COc2ccc(OC(F)(F)F)cc2)n1` [Entry 58, N-{[2-(ethyloxy)phenyl]methyl}-2-({[({4-[(trifluoromethyl)oxy]phenyl}oxy)acetyl]amino}methyl)-1,3-thiazole-4-carboxamide], the pIC50 is 6.30 to 7.30.

In general, pIC50 refers to the negative decadic logarithm of the IC50, by convention in mol/L.
